What all share (type): functional
Assay [1] relates to Mycobacterium tuberculosis. Put plainly: Antimycobacterial activity against Mycobacterium tuberculosis H37Rv by BACTEC-460 radiometric assay above 6.25 ug/ml.
Assay [2] concerns Mycobacterium tuberculosis. Put plainly: Antimycobacterial activity against Mycobacterium tuberculosis H37Rv by BACTEC-460 radiometric assay.
Assay [3] relates to Mycobacterium tuberculosis. Put plainly: Antimycobacterial activity against Mycobacterium tuberculosis H37Rv by BACTEC-460 radiometric assay at 6.25 ug/ml.

Converted amounts (≈) assume the structure as drawn.

For `COc1cc(C2=NN(C(=O)c3ccc([N+](=O)[O-])cc3)C3CCCC23)c(C)cc1OCC(=O)O` (stereo not drawn), in assay [1], the Inhibition amounted to 26%. For the same molecule, the minimum inhibitory concentration (MIC) in assay [2] was above 6.25 µg/mL.

Take `COc1cc(C2=NN(C(=O)c3ccc([N+](=O)[O-])cc3)C(c3ccc(O)cc3)C2)c(C)cc1OCC(=O)O` (stereo not drawn): in assay [1], the Inhibition came out at 74%. In assay [2], this molecule displayed an MIC of 6.25 µg/mL (≈ 12.4 µM).

As for `COc1cc(C2=NN(C(=O)c3ccccc3)C3CCCC23)c(C)cc1OCC(=O)O` (stereo not drawn), the Inhibition in assay [1] is given as 24%. In assay [2], this molecule registered an MIC above 6.25 µg/mL.

Molecule `COc1cc(C2=NN(C(=O)COc3ccc4ccccc4c3)C(Cc3ccccc3)C2)c(C)cc1OCC(=O)O` (stereo not drawn) registered an inhibition at 6.25 µg/mL in assay [3] of 95%. In addition, the MIC in assay [2] amounted to 0.22 µg/mL (≈ 0.408 µM).

Consider `COc1cc(C2=NN(C(=O)c3ccc([N+](=O)[O-])cc3)C(Cc3ccccc3)C2)c(C)cc1OCC(=O)O` (stereo not drawn), for which, in assay [1], the Inhibition is listed as 64%. Moreover, the minimal inhibitory concentration (MIC) in assay [2] is above 6.25 µg/mL.

With `COc1cc(C2=NN(C(=O)Cc3ccccc3)C3CCCC23)c(C)cc1OCC(=O)O` (stereo not drawn), the Inhibition in assay [1] is 21%. Moreover, the MIC in assay [2] is above 6.25 µg/mL.

Molecule `COc1cc(C2=NN(C(=O)COc3cccc4ccccc34)C3CCCC23)c(C)cc1OCC(=O)O` (stereo not drawn) displayed an Inhibition in assay [1] of 54%. The MIC in assay [2] is above 6.25 µg/mL.

Consider `COc1cc(C2=NN(C(=O)COc3cccc4ccccc34)C(c3ccc(O)cc3)C2)c(C)cc1OCC(=O)O` (stereo not drawn), for which the Inhibition in assay [1] is reported as 61%. The MIC in assay [2] was above 6.25 µg/mL.

In assay [3], `COc1cc(C2=NN(C(=O)COc3ccccc3)C(c3ccc(O)cc3)C2)c(C)cc1OCC(=O)O` (stereo not drawn) gave an inhibition at 6.25 µg/mL of 99%. The molecule also gave an MIC in assay [2] of 0.1 µg/mL (≈ 0.204 µM).

Take `COc1cc(C2=NN(C(=O)COc3ccccc3)C(Cc3ccccc3)C2)c(C)cc1OCC(=O)O` (stereo not drawn): in assay [3], at 6.25 µg/mL the inhibition was 94%. The molecule further had an MIC in assay [2] above 6.25 µg/mL.

As to `COc1cc(C2=NN(C(=O)Cc3ccccc3)C(Cc3ccccc3)C2)c(C)cc1OCC(=O)O` (stereo not drawn), the Inhibition in assay [1] was 34%. Moreover, in assay [2], the MIC is above 6.25 µg/mL.

As to `COc1cc(C2=NN(C(=O)COc3ccc4ccccc4c3)C3CCCC23)c(C)cc1OCC(=O)O` (stereo not drawn), the Inhibition in assay [1] is given as 91%. In assay [2], the MIC stood at 6.12 µg/mL (≈ 12.5 µM).

Turning to `COc1cc(C2=NN(C(=O)COc3ccc4ccccc4c3)C(c3ccc(O)cc3)C2)c(C)cc1OCC(=O)O` (stereo not drawn), at 6.25 µg/mL the inhibition in assay [3] was 99%. In addition, in assay [2], inhibition of growth (MIC) required 0.1 µg/mL (≈ 0.185 µM).

`COc1cc(C2=NN(C(=O)c3ccccc3)C(c3ccc(O)cc3)C2)c(C)cc1OCC(=O)O` (stereo not drawn) registered an Inhibition in assay [1] of 72%. The MIC in assay [2] is above 6.25 µg/mL.

`COc1cc(C2=NN(C(=O)COc3cccc4ccccc34)C(Cc3ccccc3)C2)c(C)cc1OCC(=O)O` (stereo not drawn): the Inhibition in assay [1] is 18%. The molecule also gave an MIC in assay [2] above 6.25 µg/mL.

In assay [1], `COc1cc(C2=NN(C(=O)Cc3ccccc3)C(c3ccc(O)cc3)C2)c(C)cc1OCC(=O)O` (stereo not drawn) yielded an Inhibition of 28%. In assay [2], this molecule had an MIC above 6.25 µg/mL.

`COc1cc(C2=NN(C(=O)c3ccccc3)C(Cc3ccccc3)C2)c(C)cc1OCC(=O)O` (stereo not drawn) had an Inhibition in assay [1] of 12%. Besides, in assay [2], the MIC was above 6.25 µg/mL.

As to `COc1cc(C2=NN(C(=O)COc3ccccc3)C3CCCC23)c(C)cc1OCC(=O)O` (stereo not drawn), the Inhibition in assay [1] is 87%. This molecule also displayed an MIC in assay [2] above 6.25 µg/mL.

In turn, `NNC(=O)c1ccncc1` [ISONIAZID] yielded an inhibition at 6.25 µg/mL in assay [3] of 96%. It took 0.1 µg/mL (≈ 0.729 µM) to inhibit growth in assay [2] (MIC).

The values are drawn from ChEMBL document CHEMBL1146905, “Synthesis and evaluation of phenoxy acetic acid derivatives as [corrected] anti-mycobacterial agents” (2006).
